A short description of series [1]: in vitro. Conditions: human, cells or culture medium, bradykinin present in media. It is filed as in vitro ADME.
A short description of series [2]: in vitro. Type of series: in vitro ADME. Conditions: human, cells or culture medium, bradykinin remaining in media.

No end group written: not given here.

The amount remaining is what is left of the initial amount, in per cent. Higher therefore signals greater stability.

In series [1], RPPGFSPFR [bradykinin] came in with a share remaining at 0.5 h, 500 pg/ml of 73 ± 3% and a fraction remaining at 1 h, 500 pg/ml of 52 ± 3%. In series [2], this sequence registered a share remaining at 0.5 h, 500 pg/ml of 51 ± 5%; a fraction remaining at 1 h, 500 pg/ml of 15 ± 3%; a fraction remaining at 1.5 h, 500 pg/ml of 9 ± 3%.
